Measurements reported in ChEMBL document CHEMBL1201862, “PubChem BioAssay data set” (2004).
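Growth conditions: 96-well plates. Treatment: test compound, 48 hours, 5 concentrations. Analysis: linear interpolation between bracketing concentrations; unreached endpoints set to highest concentration. GI50: concentration for 50% inhibition of growth.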 Calls of active or inactive are those of the source. Rule as the data show it: active = GI50 up to about 1.1 µM and inactive = higher.

What was measured:
Experiment in all cases: NCI-60 cell line screen, 48 h
786-0 = system: 786-0
A549 = system: A549
ACHN = system: ACHN
BT-549 = system: BT-549
COLO 205 = system: COLO 205
DU-145 = system: DU-145
EKVX = system: EKVX
HCC 2998 = system: HCC 2998
HCT-116 = system: HCT-116
HCT-15 = system: HCT-15
HOP-62 = system: HOP-62
HT-29 = system: HT-29
Hs-578T = system: Hs-578T
IGROV-1 = system: IGROV-1
K562 = system: K562
KM12 = system: KM12
LOX IMVI = system: LOX IMVI
M14 = system: M14
MCF7 = system: MCF7
MDA-MB-231 = system: MDA-MB-231
MDA-MB-435 = system: MDA-MB-435
MDA-N = system: MDA-N
MOLT-4 = system: MOLT-4
Malme-3M = system: Malme-3M
NCI-H226 = system: NCI-H226
NCI-H23 = system: NCI-H23
NCI-H460 = system: NCI-H460
NCI/ADR-RES = system: NCI/ADR-RES
OVCAR-3 = system: OVCAR-3
OVCAR-4 = system: OVCAR-4
OVCAR-5 = system: OVCAR-5
OVCAR-8 = system: OVCAR-8
PC-3 = system: PC-3
RPMI-8226 = system: RPMI-8226
SF-268 = system: SF-268
SF-295 = system: SF-295
SF-539 = system: SF-539
SK-MEL-28 = system: SK-MEL-28
SK-MEL-2 = system: SK-MEL-2
SK-MEL-5 = system: SK-MEL-5
SK-OV-3 = system: SK-OV-3
SN12C = system: SN12C
SNB-19 = system: SNB-19
SNB-75 = system: SNB-75
SR = system: SR
SW-620 = system: SW-620
T47D = system: T47D
TK-10 = system: TK-10
U-251 = system: U-251
UACC-257 = system: UACC-257
UACC-62 = system: UACC-62
UO-31 = system: UO-31
CAKI-1 = system: CAKI-1
CCRF-CEM = system: CCRF-CEM
HL-60 = system: HL-60
RXF 393 = system: RXF 393
NCI-H522 = system: NCI-H522

c1cc(CN2CCNCCNCCNCC2)cc(CN2CCNCCNCCNCC2)c1
GI50 (786-0): > 100 µM (inactive) | GI50 (A549): > 100 µM (inactive) | GI50 (ACHN): > 100 µM (inactive) | GI50 (BT-549): > 100 µM (inactive) | GI50 (COLO 205): > 100 µM (inactive) | GI50 (DU-145): > 100 µM (inactive) | GI50 (EKVX): > 100 µM (inactive) | GI50 (HCC 2998): > 100 µM (inactive) | GI50 (HCT-116): > 100 µM (inactive) | GI50 (HCT-15): > 10 µM | GI50 (HOP-62): > 100 µM (inactive) | GI50 (HT-29): > 100 µM (inactive) | GI50 (Hs-578T): > 100 µM (inactive) | GI50 (IGROV-1): > 100 µM (inactive) | GI50 (K562): > 100 µM (inactive) | GI50 (KM12): > 100 µM (inactive) | GI50 (LOX IMVI): > 100 µM (inactive) | GI50 (M14): > 100 µM (inactive) | GI50 (MCF7): > 100 µM (inactive) | GI50 (MDA-MB-231): > 100 µM (inactive) | GI50 (MDA-MB-435): > 100 µM (inactive) | GI50 (MDA-N): > 100 µM (inactive) | GI50 (MOLT-4): > 100 µM (inactive) | GI50 (Malme-3M): > 100 µM (inactive) | GI50 (NCI-H226): > 100 µM (inactive) | GI50 (NCI-H23): > 100 µM (inactive) | GI50 (NCI-H460): > 100 µM (inactive) | GI50 (NCI/ADR-RES): > 100 µM (inactive) | GI50 (OVCAR-3): > 100 µM (inactive) | GI50 (OVCAR-4): > 100 µM (inactive) | GI50 (OVCAR-5): > 100 µM (inactive) | GI50 (OVCAR-8): > 100 µM (inactive) | GI50 (PC-3): > 100 µM (inactive) | GI50 (RPMI-8226): > 100 µM (inactive) | GI50 (SF-268): > 100 µM (inactive) | GI50 (SF-295): > 100 µM (inactive) | GI50 (SF-539): > 100 µM (inactive) | GI50 (SK-MEL-28): > 100 µM (inactive) | GI50 (SK-MEL-2): > 100 µM (inactive) | GI50 (SK-MEL-5): > 100 µM (inactive) | GI50 (SK-OV-3): > 100 µM (inactive) | GI50 (SN12C): > 100 µM (inactive) | GI50 (SNB-19): > 100 µM (inactive) | GI50 (SNB-75): > 100 µM (inactive) | GI50 (SR): > 100 µM (inactive) | GI50 (SW-620): > 100 µM (inactive) | GI50 (T47D): > 100 µM (inactive) | GI50 (TK-10): > 100 µM (inactive) | GI50 (U-251): > 100 µM (inactive) | GI50 (UACC-257): > 100 µM (inactive) | GI50 (UACC-62): > 100 µM (inactive) | GI50 (UO-31): > 100 µM (inactive)

CCCC(=O)n1[nH]c(=O)n(C(C)(C)C)c1=O
GI50 (786-0): > 100 µM (inactive) | GI50 (A549): > 100 µM (inactive) | GI50 (ACHN): > 100 µM (inactive) | GI50 (BT-549): > 100 µM (inactive) | GI50 (CAKI-1): > 100 µM (inactive) | GI50 (CCRF-CEM): > 100 µM (inactive) | GI50 (COLO 205): > 100 µM (inactive) | GI50 (DU-145): > 100 µM (inactive) | GI50 (EKVX): > 100 µM (inactive) | GI50 (HCC 2998): > 100 µM (inactive) | GI50 (HCT-116): > 100 µM (inactive) | GI50 (HCT-15): > 100 µM | GI50 (HL-60): > 100 µM (inactive) | GI50 (HOP-62): > 100 µM (inactive) | GI50 (HT-29): > 100 µM (inactive) | GI50 (Hs-578T): > 100 µM (inactive) | GI50 (IGROV-1): > 100 µM (inactive) | GI50 (K562): > 100 µM (inactive) | GI50 (KM12): > 100 µM (inactive) | GI50 (LOX IMVI): > 100 µM (inactive) | GI50 (M14): > 100 µM (inactive) | GI50 (MCF7): > 100 µM (inactive) | GI50 (MDA-MB-231): > 100 µM (inactive) | GI50 (MDA-MB-435): > 100 µM (inactive) | GI50 (MDA-N): > 100 µM (inactive) | GI50 (MOLT-4): > 100 µM (inactive) | GI50 (Malme-3M): 44.1 µM (inactive) | GI50 (NCI-H226): > 100 µM (inactive) | GI50 (NCI-H23): > 100 µM (inactive) | GI50 (NCI-H460): > 100 µM (inactive) | GI50 (NCI/ADR-RES): > 100 µM (inactive) | GI50 (OVCAR-3): > 100 µM (inactive) | GI50 (OVCAR-4): > 100 µM (inactive) | GI50 (OVCAR-5): > 100 µM (inactive) | GI50 (OVCAR-8): > 100 µM (inactive) | GI50 (PC-3): > 100 µM (inactive) | GI50 (RPMI-8226): > 100 µM (inactive) | GI50 (RXF 393): > 100 µM (inactive) | GI50 (SF-268): > 100 µM (inactive) | GI50 (SF-295): > 100 µM (inactive) | GI50 (SK-MEL-28): > 100 µM (inactive) | GI50 (SK-MEL-2): > 100 µM (inactive) | GI50 (SK-MEL-5): > 100 µM (inactive) | GI50 (SK-OV-3): > 100 µM (inactive) | GI50 (SN12C): > 100 µM (inactive) | GI50 (SNB-19): > 100 µM (inactive) | GI50 (SNB-75): 39.5 µM (inactive) | GI50 (SR): > 100 µM (inactive) | GI50 (SW-620): > 100 µM (inactive) | GI50 (T47D): > 100 µM (inactive) | GI50 (TK-10): > 100 µM (inactive) | GI50 (U-251): > 100 µM (inactive) | GI50 (UACC-257): > 100 µM (inactive) | GI50 (UACC-62): > 100 µM (inactive) | GI50 (UO-31): > 100 µM (inactive)

Cc1cc(O)c(C(c2cccnc2)c2c(O)cc(C)[nH]c2=O)c(=O)[nH]1
GI50 (786-0): > 100 µM (inactive) | GI50 (A549): > 100 µM (inactive) | GI50 (ACHN): > 100 µM (inactive) | GI50 (BT-549): > 100 µM (inactive) | GI50 (CAKI-1): > 100 µM (inactive) | GI50 (CCRF-CEM): > 100 µM (inactive) | GI50 (COLO 205): > 100 µM (inactive) | GI50 (DU-145): > 100 µM (inactive) | GI50 (EKVX): > 100 µM (inactive) | GI50 (HCT-116): > 100 µM (inactive) | GI50 (HCT-15): > 100 µM | GI50 (HL-60): > 100 µM (inactive) | GI50 (HOP-62): > 100 µM (inactive) | GI50 (HT-29): > 100 µM (inactive) | GI50 (Hs-578T): > 100 µM (inactive) | GI50 (IGROV-1): > 100 µM (inactive) | GI50 (K562): > 100 µM (inactive) | GI50 (KM12): > 100 µM (inactive) | GI50 (LOX IMVI): > 100 µM (inactive) | GI50 (M14): > 100 µM (inactive) | GI50 (MCF7): > 100 µM (inactive) | GI50 (MDA-MB-231): > 100 µM (inactive) | GI50 (MDA-MB-435): > 100 µM (inactive) | GI50 (MDA-N): > 100 µM (inactive) | GI50 (MOLT-4): > 100 µM (inactive) | GI50 (Malme-3M): > 100 µM (inactive) | GI50 (NCI-H23): > 100 µM (inactive) | GI50 (NCI-H460): > 100 µM (inactive) | GI50 (NCI-H522): > 100 µM (inactive) | GI50 (NCI/ADR-RES): > 100 µM (inactive) | GI50 (OVCAR-3): > 100 µM (inactive) | GI50 (OVCAR-4): > 100 µM (inactive) | GI50 (OVCAR-5): > 100 µM (inactive) | GI50 (OVCAR-8): > 100 µM (inactive) | GI50 (PC-3): > 100 µM (inactive) | GI50 (RPMI-8226): > 100 µM (inactive) | GI50 (RXF 393): > 100 µM (inactive) | GI50 (SF-268): > 100 µM (inactive) | GI50 (SF-295): > 100 µM (inactive) | GI50 (SK-MEL-28): > 100 µM (inactive) | GI50 (SK-MEL-5): > 100 µM (inactive) | GI50 (SK-OV-3): > 100 µM (inactive) | GI50 (SN12C): > 100 µM (inactive) | GI50 (SNB-19): > 100 µM (inactive) | GI50 (SR): > 100 µM (inactive) | GI50 (T47D): > 100 µM (inactive) | GI50 (TK-10): > 100 µM (inactive) | GI50 (U-251): > 100 µM (inactive) | GI50 (UACC-257): > 100 µM (inactive) | GI50 (UACC-62): > 100 µM (inactive) | GI50 (UO-31): > 100 µM (inactive)
